# Results taken from PubChem BioAssay (NCI).
#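 Five concentrations, 48 hours, 96-well plates. GI50 marks 50% less growth. The concentration for full growth arrest is given as TGI.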
# Legend:
# Test in all cases: DTP human tumour cell line panel, 48 h
# UACC-62 melanoma = system: UACC-62 melanoma
# 786-0 renal = system: 786-0 renal
# TK-10 renal = system: TK-10 renal
# IGROV1 ovarian = system: IGROV1 ovarian
# EKVX NSCLC = system: EKVX NSCLC
# NCI-H23 lung = system: NCI-H23 lung
# K-562 leukemia = system: K-562 leukemia
# MOLT-4 leukemia = system: MOLT-4 leukemia
# MDA-MB-435 = system: MDA-MB-435
# NCI/ADR-RES ovarian = system: NCI/ADR-RES ovarian
SMILES,TGI (UACC-62 melanoma),TGI (786-0 renal),TGI (TK-10 renal),TGI (IGROV1 ovarian),TGI (EKVX NSCLC),TGI (NCI-H23 lung),TGI (K-562 leukemia),TGI (MOLT-4 leukemia),GI50 (UACC-62 melanoma),GI50 (786-0 renal),GI50 (TK-10 renal),GI50 (MDA-MB-435),TGI (MDA-MB-435),GI50 (IGROV1 ovarian),GI50 (EKVX NSCLC),GI50 (NCI-H23 lung),GI50 (K-562 leukemia),GI50 (NCI/ADR-RES ovarian),TGI (NCI/ADR-RES ovarian),GI50 (MOLT-4 leukemia)
O=C(CCc1cc(-c2ccc(F)cc2)n[nH]1)N(Cc1ccccc1)Cc1ccccc1,> 100 µM,> 100 µM,> 100 µM,> 100 µM,> 100 µM,> 100 µM,> 100 µM,> 100 µM,–,–,–,–,–,–,–,–,–,–,–,–
COc1cc(CCc2ccncc2)cc(OC)c1OC,> 100 µM,> 100 µM,> 100 µM,> 100 µM,> 100 µM,> 100 µM,> 100 µM,> 100 µM,–,–,–,–,–,–,–,–,–,–,–,–
O=C1C(=Cc2ccc(F)cc2)C(=O)c2ccccc21,> 100 µM,> 100 µM,> 100 µM,> 100 µM,> 100 µM,> 100 µM,> 100 µM,> 100 µM,–,–,–,–,–,–,–,–,–,–,–,–
COc1ccc2c(c1)C=CC1C2CC[C@]2(C)C(NC(=O)/C=C/c3ccc(O)c(O)c3)CCC12 (stereo partly drawn),30.8 µM,15.7 µM,10.3 µM,24.7 µM,56.5 µM,38.3 µM,49.6 µM,22.7 µM,14.9 µM,2.9 µM,2.82 µM,14.7 µM,36.6 µM,5.93 µM,18.8 µM,16.3 µM,13.9 µM,11.8 µM,33.5 µM,5.56 µM
CCN(CC)CCNc1ccc([N+](=O)[O-])c2nc3ccc(OC)cc3c(N)c12,3.61 µM,1.66 µM,2.93 µM,1.21 µM,3.28 µM,3.53 µM,0.665 µM,1.61 µM,–,–,–,–,2.98 µM,–,–,–,–,–,3.53 µM,–
NC1=C(O)C(=O)C(c2c[nH]c3ccc(OCc4ccccc4)cc23)O1 (stereo not drawn),> 100 µM,> 100 µM,> 100 µM,> 100 µM,> 100 µM,> 100 µM,> 100 µM,> 100 µM,–,–,–,–,> 100 µM,–,–,–,–,–,> 100 µM,–
C1CC[N-]CC1.CC(=N\O)/C(C)=N/O.CC(=N\O)/C(C)=N/O.C[CH-]C(C)O.[Co+2],29 µM,> 100 µM,60.4 µM,> 100 µM,> 100 µM,–,45.8 µM,42.2 µM,15.6 µM,33.9 µM,23.8 µM,23.1 µM,51.7 µM,31.7 µM,35.7 µM,–,19.3 µM,54.2 µM,> 100 µM,17.4 µM
Cc1c(Cl)cccc1NC(=O)C(=O)c1c(O)c2ccc(O)cc2oc1=O,> 100 µM,> 100 µM,> 100 µM,> 100 µM,> 100 µM,> 100 µM,> 100 µM,> 100 µM,–,–,–,–,–,–,–,–,–,–,–,–
CC(=O)[O][Hg][c]1s[c]([Hg][O]C(C)=O)[c]([Hg][O]C(C)=O)[c]1[Hg][O]C(C)=O,27.4 µM,41.8 µM,–,23.4 µM,–,> 100 µM,18.8 µM,17.5 µM,6.47 µM,2.48 µM,–,–,–,3.61 µM,–,19.7 µM,1.3 µM,–,–,2.26 µM
Oc1ccc(O)c(-n2cccn2)c1-n1cccn1,> 100 µM,> 100 µM,> 100 µM,> 100 µM,> 100 µM,> 100 µM,> 100 µM,> 10 µM,–,–,–,–,–,–,–,–,–,–,–,–
C=CCO[C@H]1CC[C@@]2(C)C(CC[C@]3(C)C2CC=C2[C@@H]4[C@@H](C)C(C)CC[C@]4(C(=O)O)CCC23C)C1(C)C (stereo partly drawn),28.3 µM,30.6 µM,32.2 µM,33.9 µM,38.1 µM,28.9 µM,28.6 µM,–,–,–,–,–,–,–,–,–,–,–,–,–
Cc1ccc(C)c(NC(=O)C(=O)Nn2c(=S)[nH]c3ccccc3c2=O)c1,> 100 µM,> 100 µM,> 100 µM,> 100 µM,> 100 µM,> 100 µM,> 100 µM,> 100 µM,–,–,–,–,–,–,–,–,–,–,–,–
C[C@H]1CC[C@@H]2[C@@H](C)[C@H]3[C@H](C[C@H]4[C@@H]5CC=C6C[C@@H](O)CC[C@]6(C)[C@H]5CC[C@]34C)N2C1,> 100 µM,> 100 µM,> 100 µM,> 100 µM,> 100 µM,> 100 µM,–,> 100 µM,–,–,–,–,> 100 µM,–,–,–,–,–,> 100 µM,–
N#C/C(=C1\OC(N)=C(c2ccc(Cl)cc2)C1=O)c1ccc(Cl)cc1,27.5 µM,29.4 µM,41.4 µM,38.3 µM,32.4 µM,27.1 µM,> 100 µM,50.9 µM,–,–,–,–,–,–,–,–,–,–,–,–
CC/C(C)=C1\CCC(CN(C)C)C1=O (stereo not drawn),> 100 µM,29.3 µM,31.1 µM,36.8 µM,44 µM,42.9 µM,79.5 µM,70.9 µM,–,–,–,–,–,–,–,–,–,–,–,–
CN1C/C(=C\c2ccc(C(=O)O)cc2)C(=O)/C(=C/c2ccc(C(=O)O)cc2)C1,> 100 µM,> 100 µM,> 100 µM,> 100 µM,> 100 µM,> 100 µM,> 100 µM,> 100 µM,–,–,–,–,–,–,–,–,–,–,–,–
COC(=N)CCCl,> 100 µM,> 100 µM,> 100 µM,> 100 µM,> 100 µM,> 100 µM,> 100 µM,> 100 µM,–,–,–,–,–,–,–,–,–,–,> 100 µM,–
C=Cc1cc(OC)c2c(c1)c(=O)oc1c2cc(OC)c2c(O)ccc(C3OC(C(C)O)C(O)C3O)c21 (stereo not drawn),0.0296 µM,0.0192 µM,0.318 µM,0.104 µM,0.0336 µM,0.0151 µM,0.126 µM,–,0.0112 µM,0.00336 µM,0.0223 µM,0.0145 µM,0.0337 µM,0.0034 µM,0.00403 µM,0.000928 µM,0.00355 µM,0.012 µM,0.271 µM,–
O/N=C1\C(=C\c2ccc3c(c2)OCCO3)CCCC1C(NO)c1ccc2c(c1)OCCO2 (stereo not drawn),31.7 µM,> 100 µM,50.7 µM,> 100 µM,69.6 µM,–,–,32.4 µM,–,–,–,–,–,–,–,–,–,–,–,–
C/C(=N\Nc1n[nH]c(=S)n1N)c1c(O)cc(C)oc1=O,> 100 µM,> 100 µM,> 100 µM,–,> 100 µM,> 100 µM,> 100 µM,> 100 µM,–,–,–,–,–,–,–,–,–,–,–,–
